# Assay results published in patent publication US20210078972A1, “QUINOLINE OR QUINAZOLINE COMPOUND AND APPLICATION THEREOF” (HAIHE BIOPHARMA CO., LTD., priority 2018, published 2021).
# What was measured:
# MV4-11 cells = test: MV4-11 cell proliferation, CCK-8; assay type: cell-based; conditions: Homo sapiens, 72 h, read-out: IC50 of inhibition of proliferation of MV4-11 cells
# Procedure: The inhibitory effects of the compounds on the proliferation of MV4-11 cells were detected by a CCK-8 cell counting kit (Dojindo). The specific steps are as follows: MV4-11 cells in the logarithmic phase were seeded into a 96-well culture plate at a suitable density for 90 μL per well. After overnight cultivation, the compounds at different concentrations were added to act for 72 hr, and a solvent control group was set (negative control). After 72 h of the compounds acting on the cells, the effects of the compounds on cell proliferation were detected using the CCK-8 cell counting kit (Dojindo). 10 μL of CCK-8 reagent was added to each well and the plate was placed in an incubator at 37° C. for 2-4 hours. After that, a full-wavelength microplate enzyme-labeling instrument SpectraMax 190 was used to read with a measurement wavelength of 450 nm.
# The inhibition rate (%) of the compound on tumor cell growth was calculated by the following formula:
# Inhibition rate (%)=(OD control well−OD administration well)/OD control well×100%
# The IC50 values were obtained by regression with the four-parameter method using the software attached to the enzyme-labeling instrument.
# [1] = test system: Mixed primary male SD rat hepatocytes; test: Metabolism in rat hepatocytes, UPLC-UV/Q-TOF MS; assay type: in vitro ADME; conditions: 180 min
# Procedure: In this example, a UPLC-UV/Q-TOF MS method was used to evaluate the differences in the metabolic processes of TL134 in hepatocytes of five species of human, monkey, canine, rat, and mouse. It provides a reference for the selection of preclinical pharmacokinetics and studies on animal species safety evaluation.
# The total volume of each incubation sample was 100 μL, the medium was WME medium (pH 7.4), and the incubation sample included hepatocytes with a cell density of 1.0×10^6 cells/mL and TL134 with a final concentration of 3.0 μM; the negative control sample was incubated with thermal-inactivated mixed hepatocytes (without cell counting) of five species of animals and TL134, and the buffer control sample was incubated with WME medium and TL134. All samples were incubated at 37° C. for 180 min, and then 100 μL of ice-cold acetonitrile was added to stop the reaction. The samples were stored at −70° C. for ready to be tested, and all incubation samples were double samples.
# Triple TOF 5600′ quadrupole-time-of-flight tandem mass spectrometer (Q-TOF MS), equipped with electrospray ionization source (ESI source) and CDS automatic calibration system, AB SCIEX Company, USA; Acquity UPLC liquid chromatography system, including binary infusion pump, autosampler, column oven, degasser and TUV ultraviolet detector, Waters Company, USA. […]
smiles,measurement,setting,value
"COc1cc2c(Oc3ccc(NC(=O)c4c(C)n(C)c5ccc(OC(F)(F)F)cc5c4=O)cc3F)ncnc2cc1OCCCN1CCOCC1 [TL-134, N-(3-fluoro-4-((6-methoxy-7-(3-morpholinopropoxy)quinazolin-4-yl)oxy)phenyl)-1,2-dim ethyl-4-oxo-6-(trifluoromethoxy)-1,4-dihydroquinoline-3-carboxamide]",IC50,MV4-11 cells,< 0.4 nM
same,"prototype drug metabolized, judging from the UV chromatographic peak areas",[1],~19.8%
